Measured values as given in US6831075B2, “Heterocyclic substituted pyrazolones” (Cephalon, Inc., priority 1999, dated 2004).

Target: T1, recombinant human baculoviral VEGFR2 cyctoplasmic domain (Homo sapiens, UniProt P35968)
T1 construct: recombinant human baculoviral VEGFR2 cyctoplasmic domain; host or cells: baculovirus expression system
Assay: VEGFR2 kinase inhibition assay (ELISA-based, time-resolved fluorescence)
Type: biochemical
Details: 1 uM compound; 30 μM ATP; read-out: VEGFR-2 kinase % inhibition @ 1 uM
Protocol: Inhibition of Vascular Endothelial Growth Factor Receptor-2 Kinase Activity
Assay were performed as described for trkA kinase below. The 96-well microtiter plate (FluoroNUNC Maxisorp) was coated with 40 μg/ml recombinant human phospholipase C-γ1/glutathione S-transferase fusion protein. Inhibition studies were performed in 100 μl assay mixtures containing 50 mM HEPES, pH 7.4, 30 μM ATP, 10 mM MnCl2, 0.1% BSA, 2% DMSO, and 1 μM of test compound. The reaction was initiated by adding prephosphorylated recombinant human baculoviral VEGFR2 cyctoplasmic domain. The reaction was allowed to proceed for 15 minutes at 37° C. The detection antibody, eurpium-labeled anti-phosphotyrosine antibody (Wallac #CR04-100), was added at 1:5000 dilution in block buffer (3% BSA in TBST).

T1 sequence (P35968 786-1356 limits assumed): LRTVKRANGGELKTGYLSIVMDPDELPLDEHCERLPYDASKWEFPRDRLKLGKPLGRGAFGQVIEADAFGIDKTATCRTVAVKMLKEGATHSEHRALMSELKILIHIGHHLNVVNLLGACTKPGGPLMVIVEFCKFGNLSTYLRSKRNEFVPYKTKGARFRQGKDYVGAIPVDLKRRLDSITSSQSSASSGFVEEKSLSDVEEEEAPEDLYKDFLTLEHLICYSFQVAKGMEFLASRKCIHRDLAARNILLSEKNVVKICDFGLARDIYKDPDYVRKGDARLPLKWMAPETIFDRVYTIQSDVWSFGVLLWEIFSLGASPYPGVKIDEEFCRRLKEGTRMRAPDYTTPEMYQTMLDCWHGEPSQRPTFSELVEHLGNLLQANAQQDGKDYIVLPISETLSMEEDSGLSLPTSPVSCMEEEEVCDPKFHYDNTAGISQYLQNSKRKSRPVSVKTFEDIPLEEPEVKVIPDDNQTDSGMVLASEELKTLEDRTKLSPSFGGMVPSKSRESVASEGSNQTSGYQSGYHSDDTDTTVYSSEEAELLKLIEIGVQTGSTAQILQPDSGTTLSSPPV

Compound `Cc1cc(C)c(C=C2C(=O)NN=C2c2c[nH]c3ccccc23)[nH]1` [Compound 76, 4-[(3,5-dimethylpyrrol-2-yl)methylene]-3-indol-3-yl-2-pyrazolin-5-one] has an inhibition at 1 µM of 39%.

With `Cc1cc(C)c(CC2C(=O)NN=C2c2c[nH]c3ccccc23)[nH]1` (centres unmarked) [Compound 77, 4-[(3,5-dimethylpyrrol-2-yl)methyl]-3-indol-3-yl-2-pyrazolin-5-one] the inhibition at 1 µM was 21%.
